Assays:
HeLa [1] = experiment: Cytotoxicity against human HeLa cells assessed as reduction in cell viability incubated for 48 hrs measured under dark conditions by MTT assay; assay type: functional, cell-based
[2] = Drug uptake in mitochondria of human HeLa cell by fluorescence confocal microscopy; assay type: ADME
[3] = Drug uptake in human HeLa cells at 20 uM incubated for 1 hr at 37 degC by fluorescence based analysis; assay type: ADME, cell-based
[4] = Photo-oxidation of L-tryptophan assessed as oxidative damage at 10 uM irradiated with white LED light at 15 mins interval for 60 mins by fluorescence based analysis; assay type: ADME; conditions: 1 h
[5] = Drug uptake in human HeLa cells at 20 uM incubated for 1 hr at 4 degC by fluorescence based analysis; assay type: ADME, cell-based
HeLa [6] = experiment: Phototoxicity against human HeLa cells assessed as reduction in cell viability preincubated for 1 hr followed by white LED irradiation for 15 mins and measured after 48 hrs by MTT assay; assay type: functional, cell-based; conditions: light or radiation study
[7] = Drug uptake in lysosomes of human HeLa cell by fluorescence confocal microscopy; assay type: ADME, subcellular, Lysosome
[8] = Drug uptake in human HeLa cells at 20 uM pretreated with clathrin-mediated endocytosis inhibitor, sucrose for 1 hr followed by incubation with compound for 1 hr by fluorescence based analysis; assay type: ADME, cell-based
[9] = Drug uptake in human HeLa cells at 20 uM pretreated with lipid raft endocytosis inhibitor, methyl-beta-cyclodextrin for 1 hr followed by incubation with compound for 1 hr by fluorescence based analysis; assay type: ADME, cell-based
[10] = Drug uptake in human HeLa cells at 20 uM pretreated with endosome fusion inhibitor, wortmannin for 1 hr followed incubation with compound for 1 hr by fluorescence based analysis; assay type: ADME, cell-based
[11] = Phototoxicity index, ratio of IC50 for cytotoxicity against human HeLa cells measured under dark condition to IC50 for phototoxicity against human HeLa cells upon white LED light irradiation; assay type: functional
[12] = Photo-oxidation of L-tryptophan assessed as oxidative damage at 10 uM irradiated with white LED light at 15 mins interval for 60 mins in presence of type 2 singlet oxygen quencher, NaN3 by fluorescence based analysis; assay type: ADME; conditions: 1 h
[13] = Drug uptake in human HeLa cell membrane by fluorescence confocal microscopy; assay type: ADME, cell membranes

Drug uptake [2]	Drug uptake [3]	Drug uptake [5]	Drug uptake [7]	Drug uptake [8]	Drug uptake [9]	Drug uptake [10]	Drug uptake [13]	Structure (SMILES)	IC50 (HeLa [1])	Activity [4]	IC50 (HeLa [6])	Ratio IC50 [11]	Activity [12]
Active	105 pmol	68 pmol	Active					c1ccc(N(c2ccccc2)c2ccc(-c3ccc(-c4cccs4)s3)cc2)cc1	> 100 µM	Active	> 100000 nM		
Active	232 pmol	44 pmol	Active	199 pmol	98 pmol	225 pmol		O=C(O)CCc1ccc(-c2ccc(-c3ccc(N(c4ccccc4)c4ccccc4)cc3)s2)s1	43.4 µM	Active	2400 nM	18	
Active	299 pmol	64 pmol	Active	188 pmol	82 pmol	205 pmol		O=C(O)c1ccc(-c2ccc(-c3ccc(N(c4ccccc4)c4ccccc4)cc3)s2)s1	> 100 µM	Active	7800 nM	>12	
Active	80 pmol	40 pmol	Active					O=C(O)/C=C/c1ccc(-c2ccc(-c3ccc(N(c4ccccc4)c4ccccc4)cc3)s2)s1	13.8 µM	Active	46 nM	460	

The remaining lines, values behind:

Structure (SMILES)	Drug uptake [2]	Drug uptake [3]	Drug uptake [5]	Drug uptake [7]	Drug uptake [8]	Drug uptake [9]	Drug uptake [10]	Drug uptake [13]	IC50 (HeLa [1])	Activity [4]	IC50 (HeLa [6])	Ratio IC50 [11]	Activity [12]
O=C(O)C(=Cc1ccc(-c2ccc(-c3ccc(N(c4ccccc4)c4ccccc4)cc3)s2)s1)C(=O)O	Active	53 pmol	36 pmol	Active					61.8 µM	Active	680 nM	91	Not Active
N#CC(C#N)=Cc1ccc(-c2ccc(-c3ccc(N(c4ccccc4)c4ccccc4)cc3)s2)s1									> 100 µM		> 74400 nM		
C[n+]1ccc(/C=C/c2ccc(-c3ccc(-c4ccc(N(c5ccccc5)c5ccccc5)cc4)s3)s2)cc1.[I-]	Active	747 pmol	344 pmol	Active	591 pmol	555 pmol	649 pmol	Active	3.3 µM	Active	940 nM	3.5	
COC(=O)/C(C#N)=C/c1ccc(-c2ccc(-c3ccc(N(c4ccccc4)c4ccccc4)cc3)s2)s1									> 100 µM		> 100000 nM		

From ChEMBL document CHEMBL4725257, “Investigation into the influence of an acrylic acid acceptor in organic D-π-A sensitizers against phototoxicity” (Bioorg Med Chem, 2020)
